Starred links: 1 amine or outer side, 2 acyl side, 3 side chain; linkers in the order of their positions; H or OH if unused. Positions of bridges follow the written chain, without caps; N, C: chain ends. Non-standard residues stand in square brackets, D forms with d. Residues, ends and D or L forms follow the SMILES beside them. Groups on a side chain read outwards from the residue. *: point of attachment. Trp(1-CH2CO2Me) = COC(=O)Cn1cc(C[C@H](N)C(=O)O)c2ccccc21; Trp(1-CH2COOH) = N[C@@H](Cc1cn(CC(=O)O)c2ccccc12)C(=O)O; NH(2-Cl-4-NO2-phenyl) = O=[N+]([O-])c1ccc(N*)c(Cl)c1; X41 = N=C(NCC[C@H](N[*:1])C(=O)[*:2])c1ccccc1; X40 = N=C(NC[C@H](N[*:1])C(=O)[*:2])c1ccccc1; Benzofuran(2-CO) = O=C(c1cc2ccccc2o1)*; X1 = S=C(Nc1ccc2c(c1)Cc1ccccc1-2)*; X50 = COc1cc(NC(=S)*)ccc1-c1cnco1; Hyp = O=C(O)[C@@H]1C[C@@H](O)CN1; X32 = c1ccc2c(c1)Cc1cc(N*)ccc1-2; X34 = O=C(c1c2ccccc2cc2ccccc12)*; X47 = O=C(c1cn2c(n1)sc1ccccc12)*; X19 = CCOC(=O)c1ccc(NC(=S)*)cc1; NMeNle = CCCC[C@H](NC)C(=O)O; NMeA = CN[C@@H](C)C(=O)O; Dab = NCC[C@H](N)C(=O)O; Dap = NC[C@H](N)C(=O)O; X89 = O=C(Oc1ccccc1)*; CO = O=C([*:1])[*:2]
Biological target: T1, PD-1/PD-L1 (Homo sapiens, UniProt Q9NZQ7)
T1 construct: TVMV protease site linker (C); made in house; host or cells: HEK293T cells
Assay: PD-1/PD-L1 Homogenous Time-Resolved Fluorescence (HTRF) binding assay
Settings: not given
Summary of the method: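 Compounds preincubated 15 min with PD-L1-His (10 nM final), then PD-1-Ig (20 nM final) added for 15 min in dPBS with 0.1% BSA, 0.05% Tween-20. Detection by Eu-cryptate anti-Ig (1 nM) and APC anti-His (20 nM) HTRF.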

T1 sequence (Q9NZQ7 18-239): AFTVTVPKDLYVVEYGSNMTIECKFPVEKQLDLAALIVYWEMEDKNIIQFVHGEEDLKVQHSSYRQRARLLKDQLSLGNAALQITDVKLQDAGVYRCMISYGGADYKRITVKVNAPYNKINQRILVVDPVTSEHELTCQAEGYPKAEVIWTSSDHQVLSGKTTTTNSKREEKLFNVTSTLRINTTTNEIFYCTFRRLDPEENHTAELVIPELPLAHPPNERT

Structure (SMILES)	IC50
CCCC[C@H]1C(=O)N(C)[C@@H](CCCC)C(=O)N[C@@H](CC(C)C)C(=O)N[C@H](C(=O)NCC(N)=O)CSCC(=O)N[C@@H](Cc2ccc(O)cc2)C(=O)N(C)[C@@H](C)C(=O)N[C@@H](CC(N)=O)C(=O)N2CCC[C@H]2C(=O)N[C@@H](CNC(=O)Nc2ccc3c(c2)Cc2ccccc2-3)C(=O)N[C@@H](CC(C)C)C(=O)N2C[C@H](O)C[C@H]2C(=O)N[C@@H](Cc2c[nH]c3ccccc23)C(=O)N[C@@H](CCN)C(=O)N[C@@H](Cc2cn(CC(=O)O)c3ccccc23)C(=O)N1C [Example 2009] ({CH2CO}-Y[NMeA]NP[Dap]([CO-X32])L[Hyp]W[Dab][Trp(1-CH2COOH)][NMeNle][NMeNle]LCG-NH2; thioether N-14)	3.6 nM
CCCC[C@H]1C(=O)N(C)[C@@H](CCCC)C(=O)N[C@@H](CC(C)C)C(=O)N[C@H](C(=O)NCC(N)=O)CSCC(=O)N[C@@H](Cc2ccc(O)cc2)C(=O)N(C)[C@@H](C)C(=O)N[C@@H](CC(N)=O)C(=O)N2CCC[C@H]2C(=O)N[C@@H](CNC(=O)Oc2ccccc2)C(=O)N[C@@H](CC(C)C)C(=O)N2C[C@H](O)C[C@H]2C(=O)N[C@@H](Cc2c[nH]c3ccccc23)C(=O)N[C@@H](CCNC(=O)Oc2ccccc2)C(=O)N[C@@H](Cc2cn(CC(=O)OC)c3ccccc23)C(=O)N1C [Example 1013] ({CH2CO}-Y[NMeA]NP[Dap](X89)L[Hyp]W[Dab](X89)[Trp(1-CH2CO2Me)][NMeNle][NMeNle]LCG-NH2; thioether N-14)	5.2 nM
CCCC[C@H]1C(=O)N(C)[C@@H](CCCC)C(=O)N[C@@H](CC(C)C)C(=O)N[C@H](C(=O)NCC(N)=O)CSCC(=O)N[C@@H](Cc2ccc(O)cc2)C(=O)N(C)[C@@H](C)C(=O)N[C@@H](CC(N)=O)C(=O)N2CCC[C@H]2C(=O)N[C@@H](CNC(=O)Nc2ccc([N+](=O)[O-])cc2Cl)C(=O)N[C@@H](CC(C)C)C(=O)N2C[C@H](O)C[C@H]2C(=O)N[C@@H](Cc2c[nH]c3ccccc23)C(=O)N[C@@H](CCNC(=O)Nc2ccc([N+](=O)[O-])cc2Cl)C(=O)N[C@@H](Cc2cn(CC(=O)O)c3ccccc23)C(=O)N1C [Example 1096] ({CH2CO}-Y[NMeA]NP[Dap]([CO-NH(2-Cl-4-NO2-phenyl)])L[Hyp]W[Dab]([CO-NH(2-Cl-4-NO2-phenyl)])[Trp(1-CH2COOH)][NMeNle][NMeNle]LCG-NH2; thioether N-14)	6.9 nM

Same assay, conditions: PD-L1-His 10 nM pre-incubated with inhibitor, PD-1-Ig 20 nM; read-out: HTRF IC50

Structure (SMILES)	IC50
CCCC[C@H]1C(=O)N(C)[C@@H](CCCC)C(=O)N[C@@H](CC(C)C)C(=O)N[C@H](C(=O)NCC(N)=O)CSCC(=O)N[C@@H](Cc2ccc(O)cc2)C(=O)N(C)[C@@H](C)C(=O)N[C@@H](CC(N)=O)C(=O)N2CCC[C@H]2C(=O)N[C@@H](CNC(=S)Nc2ccc3c(c2)Cc2ccccc2-3)C(=O)N[C@@H](CC(C)C)C(=O)N2C[C@H](O)C[C@H]2C(=O)N[C@@H](Cc2c[nH]c3ccccc23)C(=O)N[C@@H](CCNC(=S)Nc2ccc3c(c2)Cc2ccccc2-3)C(=O)N[C@@H](Cc2cn(CC(=O)O)c3ccccc23)C(=O)N1C [Example 2012] ({CH2CO}-Y[NMeA]NP[Dap](X1)L[Hyp]W[Dab](X1)[Trp(1-CH2COOH)][NMeNle][NMeNle]LCG-NH2; thioether N-14)	15.2 nM
CCCC[C@H]1C(=O)N(C)[C@@H](CCCC)C(=O)N[C@@H](CC(C)C)C(=O)N[C@H](C(=O)NCC(N)=O)CSCC(=O)N[C@@H](Cc2ccc(O)cc2)C(=O)N(C)[C@@H](C)C(=O)N[C@@H](CC(N)=O)C(=O)N2CCC[C@H]2C(=O)N[C@@H](CNC(=O)c2c3ccccc3cc3ccccc23)C(=O)N[C@@H](CC(C)C)C(=O)N2C[C@H](O)C[C@H]2C(=O)N[C@@H](Cc2c[nH]c3ccccc23)C(=O)N[C@@H](CCN)C(=O)N[C@@H](Cc2cn(CC(=O)O)c3ccccc23)C(=O)N1C [Example 2015] ({CH2CO}-Y[NMeA]NP[Dap](X34)L[Hyp]W[Dab][Trp(1-CH2COOH)][NMeNle][NMeNle]LCG-NH2; thioether N-14)	3.2 nM

Next, values leading:

IC50	Structure (SMILES)
3.2 nM	CCCC[C@H]1C(=O)N(C)[C@@H](CCCC)C(=O)N[C@@H](CC(C)C)C(=O)N[C@H](C(=O)NCC(N)=O)CSCC(=O)N[C@@H](Cc2ccc(O)cc2)C(=O)N(C)[C@@H](C)C(=O)N[C@@H](CC(N)=O)C(=O)N2CCC[C@H]2C(=O)N[C@@H](CNC(=O)c2cc3ccccc3o2)C(=O)N[C@@H](CC(C)C)C(=O)N2C[C@H](O)C[C@H]2C(=O)N[C@@H](Cc2c[nH]c3ccccc23)C(=O)N[C@@H](CCN)C(=O)N[C@@H](Cc2cn(CC(=O)O)c3ccccc23)C(=O)N1C [Example 3034] ({CH2CO}-Y[NMeA]NP[Dap](Benzofuran(2-CO))L[Hyp]W[Dab][Trp(1-CH2COOH)][NMeNle][NMeNle]LCG-NH2; thioether N-14)
184 nM	CCCC[C@H]1C(=O)N(C)[C@@H](CCCC)C(=O)N[C@@H](CC(C)C)C(=O)N[C@H](C(=O)NCC(N)=O)CSCC(=O)N[C@@H](Cc2ccc(O)cc2)C(=O)N(C)[C@@H](C)C(=O)N[C@@H](CC(N)=O)C(=O)N2CCC[C@H]2C(=O)N[C@@H](CNC(=O)c2cn3c(n2)sc2ccccc23)C(=O)N[C@@H](CC(C)C)C(=O)N2C[C@H](O)C[C@H]2C(=O)N[C@@H](Cc2c[nH]c3ccccc23)C(=O)N[C@@H](CCNC(=O)c2cn3c(n2)sc2ccccc23)C(=O)N[C@@H](Cc2cn(CC(=O)OC)c3ccccc23)C(=O)N1C [Example 2001] ({CH2CO}-Y[NMeA]NP[Dap](X47)L[Hyp]W[Dab](X47)[Trp(1-CH2CO2Me)][NMeNle][NMeNle]LCG-NH2; thioether N-14)
4 nM	CCCC[C@H]1C(=O)N(C)[C@@H](CCCC)C(=O)N[C@@H](CC(C)C)C(=O)N[C@H](C(=O)NCC(N)=O)CSCC(=O)N[C@@H](Cc2ccc(O)cc2)C(=O)N(C)[C@@H](C)C(=O)N[C@@H](CC(N)=O)C(=O)N2CCC[C@H]2C(=O)N[C@@H](CNC(=S)Nc2ccc(C(=O)OCC)cc2)C(=O)N[C@@H](CC(C)C)C(=O)N2C[C@H](O)C[C@H]2C(=O)N[C@@H](Cc2c[nH]c3ccccc23)C(=O)N[C@@H](CCN)C(=O)N[C@@H](Cc2cn(CC(=O)O)c3ccccc23)C(=O)N1C [Example 1042] ({CH2CO}-Y[NMeA]NP[Dap](X19)L[Hyp]W[Dab][Trp(1-CH2COOH)][NMeNle][NMeNle]LCG-NH2; thioether N-14)
4.4 nM	CCCC[C@H]1C(=O)N(C)[C@@H](CCCC)C(=O)N[C@@H](CC(C)C)C(=O)N[C@H](C(=O)NCC(N)=O)CSCC(=O)N[C@@H](Cc2ccc(O)cc2)C(=O)N(C)[C@@H](C)C(=O)N[C@@H](CC(N)=O)C(=O)N2CCC[C@H]2C(=O)N[C@@H](CNC(=S)Nc2ccc(-c3cnco3)c(OC)c2)C(=O)N[C@@H](CC(C)C)C(=O)N2C[C@H](O)C[C@H]2C(=O)N[C@@H](Cc2c[nH]c3ccccc23)C(=O)N[C@@H](CCN)C(=O)N[C@@H](Cc2cn(CC(=O)O)c3ccccc23)C(=O)N1C [Example 1028] ({CH2CO}-Y[NMeA]NP[Dap](X50)L[Hyp]W[Dab][Trp(1-CH2COOH)][NMeNle][NMeNle]LCG-NH2; thioether N-14)
3.4 nM	CCCC[C@H]1C(=O)N(C)[C@@H](CCCC)C(=O)N[C@@H](CC(C)C)C(=O)N[C@H](C(=O)NCC(N)=O)CSCC(=O)N[C@@H](Cc2ccc(O)cc2)C(=O)N(C)[C@@H](C)C(=O)N[C@@H](CC(N)=O)C(=O)N2CCC[C@H]2C(=O)N[C@@H](CNC(=N)c2ccccc2)C(=O)N[C@@H](CC(C)C)C(=O)N2C[C@H](O)C[C@H]2C(=O)N[C@@H](Cc2c[nH]c3ccccc23)C(=O)N[C@@H](CCNC(=N)c2ccccc2)C(=O)N[C@@H](Cc2cn(CC(=O)O)c3ccccc23)C(=O)N1C [Example 1019] ({CH2CO}-Y[NMeA]NP[X40]L[Hyp]W[X41][Trp(1-CH2COOH)][NMeNle][NMeNle]LCG-NH2; thioether N-14)

Source: US20220389061A1, “IMMUNOMODULATORS” (priority 2019, published 2022)
